Reference: patent publication US9206154B2 (The United States of America, as represented by the …, priority 2010, dated 2015)

What was measured:
[1] = system: TPO, TSHR, TG, DIO2 and NIS mRNAs; test: Basal expression of thyroid gene mRNAs in primary cultures of human thyrocytes (quantitative RT-PCR); assay type: cell-based; details: 30 μM, 48 hr, IBMX, no agonist
Experimental: FIG. 4B) Thyrocytes were incubated in media containing 2% fetal bovine serum and 1 mM IBMX without or with 30 μM 1 as described in Methods. After 48 h, the cells were lysed and the levels of the mRNAs were measured and normalized to GAPDH mRNA. The mRNA levels are presented as fold stimulation over control. The data are from three independent experiments with duplicate samples are shown.
Culture of primary human thyrocytes.
(§1) Quantitative RT-PCR. mRNA levels were measured using primers and probes were from Applied Biosystems. Quantitative RT-PCR results were normalized to GAPDH to correct for differences in RNA input.

beta-adrenergic receptor = test: Isoproterenol-stimulated cAMP accumulation in human thyrocytes; assay type: cell-based
Text: (§2) This was important because it has been shown that TSHR mutants signal differently in different cell types. […] TSH and the small molecule ligand agonist that were identified previously specifically increase expression of several genes in thyrocytes (J Biomol Screen 13, 120, 2008; Proc Nat Acad Sci 106, 12471, 2009).

[2] = system: 7TMR for vasoactive intestinal peptide; test: Vasoactive intestinal peptide-stimulated cAMP accumulation in human thyrocytes; assay type: cell-based
Text: as §2

adenylyl cyclase = test: Forskolin-stimulated cAMP accumulation in human thyrocytes; assay type: cell-based
Text: as §2

TPO mRNA = test: Basal and TSAb-induced up-regulation of TPO mRNA in primary cultures of human thyrocytes; assay type: cell-based; details: 30 μM, 1:10 dilutions of GD sera, 48 hr
Experimental: Thyrocytes were incubated in DMEM containing 2% fetal bovine serum without (Control) or with 30 μM compound S2-6 without (basal) or with 1:10 dilutions of GD sera at 37 C. After 48 hr, the buffers were aspirated, the cells were lysed and the levels of TPO mRNA were measured and normalized to GAPDH mRNA. The mRNA levels are presented as fold of basal levels (Control). The data from 2 independent experiments with duplicate samples are shown.
as §1

TSHR [3] = biological target: T1, TSHR (Homo sapiens, UniProt P16473); test: 125I-TSH binding to TSHRs on the surface of HEK-EM 293 cells; details: HEK-EM 293 / HEKTSHR cells
T1 construct: expressed in transfected cells
T1 sequence (P16473 21-764): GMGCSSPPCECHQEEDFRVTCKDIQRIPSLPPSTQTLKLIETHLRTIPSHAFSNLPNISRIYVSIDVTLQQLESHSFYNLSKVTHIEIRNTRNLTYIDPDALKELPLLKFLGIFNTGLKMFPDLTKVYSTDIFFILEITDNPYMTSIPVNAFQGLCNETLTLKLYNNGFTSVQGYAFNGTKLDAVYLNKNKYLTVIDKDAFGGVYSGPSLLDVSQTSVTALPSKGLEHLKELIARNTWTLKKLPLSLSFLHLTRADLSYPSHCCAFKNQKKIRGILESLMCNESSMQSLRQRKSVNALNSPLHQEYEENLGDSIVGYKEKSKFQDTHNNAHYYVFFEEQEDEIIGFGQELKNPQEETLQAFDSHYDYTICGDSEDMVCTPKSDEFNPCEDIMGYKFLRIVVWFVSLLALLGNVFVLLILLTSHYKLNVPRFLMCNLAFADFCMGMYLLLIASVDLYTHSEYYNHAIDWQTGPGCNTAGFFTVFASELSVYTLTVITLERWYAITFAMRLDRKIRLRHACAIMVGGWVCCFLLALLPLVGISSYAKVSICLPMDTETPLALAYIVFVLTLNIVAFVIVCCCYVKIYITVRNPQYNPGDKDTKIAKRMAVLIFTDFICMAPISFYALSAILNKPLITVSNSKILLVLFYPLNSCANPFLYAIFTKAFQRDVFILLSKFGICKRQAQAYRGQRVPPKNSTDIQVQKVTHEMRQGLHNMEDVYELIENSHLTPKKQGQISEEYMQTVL
Experimental: HEK-EM293 cells stably expressing TSHRs were seeded into 24-well plates and grown to near confluency. Cell surface binding was measured by incubation in 0.25 ml binding buffer (HBSS containing 2.5% milk powder and 0.2% BSA) containing 60,000 cpm bovine ^125I-TSH without or with xx μM 1 for 2 hr at RT; nonspecific binding was measured in the presence of 1.8 μM unlabeled bovine TSH. Cells were washed 3 times with 0.5 ml ice cold HBSS and lysed with 0.5 ml 0.4 N NaOH, and the cell-associated radioactivity counted in a gamma counter.

TSHR [4] = biological target: T1, TSHR; details: cited from earlier work
TSHR [5] = biological target: T1, TSHR; test: Basal (agonist-independent) cAMP production in HEK-EM 293 cells stably expressing TSHRs; assay type: cell-based; details: for classification from dose response of basal cAMP (inverse agonist activity): 60 min in HBSS + 1 mM IBMX, % of basal activity
Experimental: (§3) After 60 min, the cells were lysed and cAMP levels were measured by ELISA.
(§4) Non-treated cells, incubated with IBMX only, were used as control (basal activity). After 60 min, the cells were lysed and cAMP levels were measured by ELISA. […] After 40 min, the incubation was stopped and total cAMP levels were measured by ELISA.
HEK-EM 293 cells stably expressing TSHRs were exposed to the noted concentrations of the small molecule ligands for 60 min in HBSS+1 mM IBMX. Non-treated cells, incubated with IBMX only, were used as control (basal activity). After 60 min, the cells were lysed and cAMP levels were measured by ELISA.
(§5) Determination of cAMP production.

TSHR [6] = biological target: T1, TSHR; test: Graves' disease sera-stimulated cAMP production in HEKTSHR cells; assay type: cell-based; details: 1:30 dilutions of thirty GD sera
Experimental: FIG. 13A. […] After an additional 40 min, the incubation was stopped and total cAMP levels were measured by ELISA. The data are from one experiment with triplicate samples and are representative of 3 experiments. The effects of compound S2-6 were significant by paired t-test (P<0.01).
FIG. 13B. HEKTSHR cells were incubated without (Control) or with 30 μM compound S2-6 for 20 min and then 1 mM IBMX and 1:30 dilutions of thirty GD sera were added. After an additional 40 min, the incubation was stopped and total cAMP levels were measured by ELISA. […] The data are representative of 2 experiments performed in duplicate.

[7] = biological target: T2, TSHRs on retro-orbital fibroblasts (Homo sapiens, UniProt P16473); test: TSHR signaling in retro-orbital fibroblasts from patients with Graves' orbitopathy; assay type: cell-based; details: preliminary experiment; fibroblasts in cell culture
T2 construct: endogenous in cells; host or cells: cultured retro-orbital fibroblasts from Graves' orbitopathy patients
T2 sequence (P16473 21-764): as above
Text: In a preliminary experiment, it has been shown that compound S2-6 inhibits activation of TSHRs on retro-orbital fibroblasts acquired from patients with Graves' orbitopathy. Retro-orbital fibroblasts were obtained from patients undergoing decompression eye surgery for Graves' orbitopathy and were adapted to cell culture.

[8] = cited from earlier work
TSHR [9] = biological target: T1, TSHR; test: TSH-stimulated cAMP production in HEK-EM 293 cells stably expressing TSHRs; assay type: cell-based; details: for classification from dose response of TSH-stimulated cAMP (FIG. 11): 1 mU/ml hTSH (EC50 dose)
Experimental: as §3, §4
After 40 min, the incubation was stopped and total cAMP levels were measured by ELISA. The data are from 2 experiments with duplicate samples and are presented as mean±SE.
as §5

COc1ccc(C2Nc3ccccc3C(=O)N2Cc2ccco2)cc1COc1c(C)cccc1C (centres unmarked) [Compound 1, 2-(3-((2,6-dimethylphenoxy)methyl)-4-methoxyphenyl)-3-(furan-2-ylmethyl)-2,3-dihydroquinazolin-4(1H)-one]
DIO2 mRNA level [1]: decreased | NIS mRNA level [1]: decreased | TG mRNA level [1]: decreased | TPO mRNA level [1]: decreased | TSHR mRNA level [1]: decreased | cAMP accumulation stimulated by isoproterenol (beta-adrenergic receptor): did not decrease | cAMP accumulation stimulated by vasoactive intestinal peptide [2]: did not decrease | cAMP accumulation stimulated by forskolin (adenylyl cyclase): did not decrease

COc1ccc(C2Nc3ccccc3C(=O)N2Cc2cccnc2)cc1COc1c(C)cccc1C (centres unmarked) [Compound S2-6, 2-(3-((2,6-dimethylphenoxy)methyl)-4-methoxyphenyl)-3-(pyridin-3-ylmethyl)-2,3-dihydroquinazolin-4-one]
inhibition of basal and GD sera TSAb up-regulation of thyroperoxidase mRNA levels (TPO mRNA): 65±2.0% | effect on 125I-TSH binding to TSHRs (TSHR [3]): no effect | potency and efficacy as TSHR antagonist relative to compound 1 (TSHR [4]): as potent and effective as compound 1 | classification from dose response of basal cAMP (inverse agonist activity) (TSHR [5]): inverse agonists | inhibition at 30 µM (TSHR [5]; HEK-EM293, read-out: inhibition of basal cAMP production by TSHRs at 30 μM): 53% | inhibition at 30 µM (TSHR [6]): 39 ± 2.6% | inhibition of basal signaling in retro-orbital fibroblasts [7]: 75% | inhibition of thyroid-stimulating antibody-stimulated signaling in retro-orbital fibroblasts [7]: 85% | solubility relative to compound 1 [8]: increased solubility | classification from dose response of TSH-stimulated cAMP (FIG. 11) (TSHR [9]): neutral antagonists | inhibition at 30 µM (TSHR [9]; HEK-EM293, read-out: inhibition of cAMP production stimulated by an EC50 concentration of TSH at 30 μM): 53% | mode of antagonism of TSH signaling (TSHR [9]; varying TSH concentrations (Schild analysis for compound 1)): competitive

COc1ccc(C2Nc3ccccc3C(=O)N2Cc2ccco2)cc1COc1c(C)cc(NC(C)=O)cc1C (centres unmarked) [Compound S2-7, N-(4-(5-(3-(Furan-2-ylmethyl)-4-oxo-1,2,3,4-tetrahydroquinazolin-2-yl)-2-methoxybenzyloxy)-3,5-dimethylphenyl)acetamide]
classification from dose response of basal cAMP (inverse agonist activity) (TSHR [5]): inverse agonists | classification from dose response of TSH-stimulated cAMP (FIG. 11) (TSHR [9]): neutral antagonists

COc1ccc(C2Nc3ccccc3C(=O)N2Cc2ccco2)cc1CSc1c(C)cccc1C (centres unmarked) [Compound S2-8, 2-(3-((2,6-Dimethylphenylthio)methyl)-4-methoxyphenyl)-3-(furan-2-ylmethyl)-2,3-dihydroquinazolin-4(1H)-one]
classification from dose response of basal cAMP (inverse agonist activity) (TSHR [5]): neutral antagonist | classification from dose response of TSH-stimulated cAMP (FIG. 11) (TSHR [9]): neutral antagonists

COc1ccc(C2Nc3ccccc3C(=O)N2Cc2cccnc2)cc1COc1c(C)cc(NC(C)=O)cc1C (centres unmarked) [Compound S2-17, N-(4-(2-Methoxy-5-(4-oxo-3-(pyridin-3-ylmethyl)-1,2,3,4-tetrahydroquinazolin-2-yl)benzyloxy)-3,5-dimethylphenyl)acetamide]
classification from dose response of TSH-stimulated cAMP (FIG. 11) (TSHR [9]): neutral antagonists

COCCN1C(=O)c2ccccc2NC1c1ccc(OC)c(COc2c(C)cc(NC(C)=O)cc2C)c1 (centres unmarked) [Compound S2-29, N-(4-(2-methoxy-5-(3-(2-methoxyethyl)-4-oxo-1,2,3,4-tetrahydroquinazolin-2-yl)benzyloxy)-3,5-dimethylphenyl)acetamide]
classification from dose response of TSH-stimulated cAMP (FIG. 11) (TSHR [9]): neutral antagonists
